Test results as given in patent EP0313703A1, “Use of 24,25-dihydroxycholecalciferole in the treatment of urinary calculus” (KUREHA KAGAKU KOGYO KABUSHIKI KAISHA, priority 1987, dated 1989).

Experiments:
renal calculus = experiment: Inhibition of formation of renal calculus in model rats (ethylene glycol + 1α-hydroxycholecarciferol); type: in vivo, Wistar rats; settings: 10 µg/kg/1 ml/day p.o., four weeks
Procedure: As the test animals for renal calculus, the following rats were used.
Twenty male Wistar rats (age of 8 weeks and body weight of about 200 g) were allowed to take a water containing 0.5 % of ethylene glycol freely, and a mixture of 0.5 µg of 1α-hydroxycholecarciferol and 0.1 ml of triglyceride of a fatty acid of 8 to 10 carbon atoms was forcibly and orally administered by a stomach tube every other day for four weeks, thereafter being used as the test animals.
24R,25-(OH)₂-D₃ in the triglyceride of a fatty acid of 8 to 10 carbon atoms containing 2 % of ethanol was forcibly and orally administered to each of the test animals at a dose of 10µg/kg/1 ml/day by a stomach tube, and to each animals of the control group, the triglyceride of a fatty acid of 8 to 10 carbon atoms was administered in the same manner as above.
The animals were slaughtered after four weeks from the first administration, and the kidney of the animal was extirpated therefrom after the exsanguination and immediately photographed by soft X-ray. Furhter the cross section of the extirpated kidney containing papilla was observed by naked eyes.

male or female ICR mice = experiment: 30-day repeated oral administration: body weight and histopathology; type: in vivo; settings: 10, 100 or 1000 µg/kg daily p.o. for 30 days
Procedure: After dissolving 24R,25-(OH)₂-D₃, at a prescribed concentration, into the triglyceride of a fatty acid of 8 to 10 carbon atoms containing 1 % of ethanol, the solution was forcibly and orally administered to each of the three groups of the male or female ICR mice continuously for 30 days at a daily dose of 10, 100 or 1000 µg/kg.
The examined organs are as follows: brain, heart, lung, liver, kidney, adrenal, spleen, pancreas, thyroid, hypophysis, thymus, mesentric lymph node, testis, ovary, uterus, stomach, small intestines (jejunum, ileum and duodenum), large intestines (colon and cecum), eyeball, submandibular gland, urinary bladder, backskin, muscle, sternum, marrow of sternum, femur and marrow of femur.

[1] = Acute oral toxicity, single dose, 2 weeks observation; type: in vivo, mice; settings: mouse, in vivo, po, male ICR mice; read-out: acute oral LD₅₀
Procedure: (§1) After dissolving the present substance in ethanol, the thus formed solution was diluted by a triglyceride of a fatty acid of 8 to 10 carbon atoms so that the concentration of ethanol became 2 %. The thus formed solution was orally (p.o.) administered to each of 10 male ICR mice (age of 6 weeks, body weight of 25±3 g) at dose of 150 mg/kg. […] Accordingly, the acute oral LD₅₀ of the present substance is not less than […] and the present substance can be said to be extremely safe.

male ICR mice = experiment: as above; type: in vivo; settings: 150 mg/kg p.o.
Procedure: as §1

Row | SMILES | calculi in the pelvis and the papilla of the kidney, observation by naked eyes (renal calculus; 10 rats, control group: 8 cases among 10 rats) | radial deposition of crystals in the renal parenchyma, observation by naked eyes (renal calculus; 10 rats, remarkably found in the control group) | formation of calculus, soft X-ray photograph of the kidney (renal calculus; compared with control rats) | body weight change (growth curve) (male or female ICR mice) | histopathological examination of organs (hematoxylin·eosin) (male or female ICR mice) | LD50 at 336 h [1] [mg/kg] | survival / toxic symptoms (male ICR mice; 10 male ICR mice, observed for 2 weeks) | biochemical examination of the blood, autopsy and histopathological examination versus control animals (male ICR mice; male ICR mice, after slaughter at 2 weeks)
1 | C=C1CC[C@H](O)C/C1=C/C=C1\CCC[C@]2(C)[C@@H]([C@H](C)CC[C@@H](O)C(C)(C)O)CC[C@@H]12 [24R,25-(OH)₂-D₃] | any clear calculus was never recognized | one rat of 10 rats | clear inhibition of the formation of calculus | any significant difference in the body weight change was not recognized | any abnormal findings were not particularly recognized | – | – | –
2 | C=C1CC[C@H](O)C/C1=C/C=C1\CCC[C@]2(C)[C@@H]([C@H](C)CCC(O)C(C)(C)O)CC[C@@H]12 (some centres unmarked) [the present substance, 24,25-dihydroxycholecalciferol] | – | – | – | – | – | ≥ 100 | all the animals (10 mice) survived without any abnormality | no difference was found
